Measurements from US11857515B2, “Branched amino acid surfactants for use in healthcare products” (AdvanSix Resins & Chemicals LLC, priority 2020, dated 2024).
Values joined by “and” are separate entries in the source; they are usually repeats but may differ in a detail not shown here. Equal values may be shown once.

Legend:
Format in all cases: physicochemical
[1] = Critical micelle concentration (CMC) from surface tension versus concentration, Wilhelmy plate method; settings: for surface tension at the CMC: from plot of surface tension versus concentration; for surface tension at the CMC / minimum surface tension that can be reached (plateau / asymptotic value): pH=7; for minimum surface tension that can be reached (plateau / asymptotic value) / critical micelle concentration (CMC): in water
Excerpt: As surfactant concentration increases, surface tension decreases. Once the surface is completely overlaid with surfactant molecules, micelles begin to form. This point represents the CMC, as well as the minimum surface tension. Further addition of surfactant will not further affect the surface tension. CMC may therefore be measured by observing the change in surface tension as a function of surfactant concentration. One such method for measuring this value is the Wilhemy plate method. A Wilhelmy plate is usually a thin iridium-platinum plate attached to a balance by a wire and placed perpendicularly to the air-liquid interface. The balance is used to measure the force exerted on the plate by wetting. This value is then used to calculate the surface tension (γ) according to Equation 1: γ=F/I cos θ Equation 1: wherein I is equal to the wetted perimeter (2w+2d, in which w and d are the […], respectively) and cos θ, the contact angle between the liquid and the plate, is assumed to be 0 in the absence of an extant literature value.
(§1) Nuclear magnetic resonance (NMR) spectroscopy was performed on a Bruker 500 MHz spectrometer. The critical micelle concentration (CMC) was determined by the Wilhelmy plate method at 23° C. with a tensiometer (DCAT 11, DataPhysics Instruments GmbH) equipped with a Pt—Ir plate. Dynamic surface tension was determined with a bubble pressure tensiometer (Krüss BP100, Krüss GmbH), at 23° C. Contact angle was determined with the optical contact angle goniometer (OCA 15 Pro, DataPhysics GmbH) equipped with a digital camera.
The critical micelle concentration (CMC) of the 6-((2-butyloctyl)oxy)-N,N,N-trimethyl-6-oxohexan-1-aminium iodide from Example 1a was tested. […] From the plot of the results, the surface tension at the CMC is equal to or less than about 27 mN/m.
The critical micelle concentration (CMC) of the 6-((2-butyloctyl)oxy)-N,N-dimethyl-6-oxohexan-1-aminium 4-methylbenzenesulfonate from Example 2a was tested. From the change in surface tension with concentration in water, the CMC was determined to be about 0.97 mmol. The plateau value of minimum surface tension that can be reached by this surfactant is about 27 mN/m, namely 27 mN/m±3 mN/m. […] From the plot of the results, the surface tension at the CMC is equal to or less than about 30 mN/m.

[2] = Dynamic surface tension, bubble pressure tensiometer; settings: 23° C.
Description: One method by which dynamic surface tension is measured relies upon a bubble pressure tensiometer. This device measures the maximum internal pressure of a gas bubble that is formed in a liquid by means of a capillary. The measured value corresponds to the surface tension at a certain surface age, the time from the start of the bubble formation to the occurrence of the pressure maximum. The dependence of surface tension on surface age can be measured by varying the speed at which bubbles are produced.
as §1
The dynamic surface tension of the 6-((2-butyloctyl)oxy)-N,N-dimethyl-6-oxohexan-1-aminium 4-methylbenzenesulfonate from Example 2a was determined with a bubble pressure tensiometer which measures the change of surface tension of a freshly created air-water interface with time. FIG. 2B presents a plot of the surface tension versus time, showing that surface tension in the time interval between 10 and 100 ms drops rapidly from about 46 mN/m to about 30 mN/m. In the time interval from 100 to 8,000 ms, the surface tension drops slowly from 30 mN/m to about 27 mN/m, approaching asymptotically the saturation value of the surface tension at the CMC.

[3] = Wetting properties: contact angle on solid substrates, optical contact angle goniometer; settings: 10x CMC
Excerpt: Surface-active compounds may also be assessed by their wetting ability on solid substrates as measured by the contact angle. When a liquid droplet comes in contact with a solid surface in a third medium, such as air, a three-phase line forms among the liquid, the gas and the solid. The angle between the surface tension unit vector, acting at the three-phase line and tangent at the liquid droplet, and the surface is described as the contact angle. The contact angle (also known as wetting angle) is a measure of the wettability of a solid by a liquid. In the case of complete wetting, the liquid is completely spread over the solid and the contact angle is 0°. Wetting properties are typically measured for a given compound at the concentration of 1-10×CMC, however, it is not a property that is concentration-dependent therefore measurements of wetting properties can be measured at concentrations that are higher or lower.
In one method, an optical contact angle goniometer may be used to measure the contact angle. This device uses a digital camera and software to extract the contact angle by analyze the contour shape of a sessile droplet of liquid on a surface.
as §1
In addition to surface tension and surface dynamics, the wetting properties of the 6-((2-butyloctyl)oxy)-N,N-dimethyl-6-oxohexan-1-aminium 4-methylbenzenesulfonate from Example 2a were tested on various surfaces.

[4] = substrate Polyethylene terephthalate

Row | critical micelle concentration (CMC), not clearly determined up to this concentration ([1]; 23° C., pH=7, Wilhelmy plate) [mg/mL] | surface tension at the CMC [1] [mN/m] | minimum surface tension that can be reached (plateau / asymptotic value) ([1]; 23° C.) | critical micelle concentration (CMC) ([1]; 23° C., pH=7, Wilhelmy plate) | dynamic surface tension ([2]; surface age 10 ms) | dynamic surface tension ([2]; surface age 100 ms) | dynamic surface tension ([2]; surface age 8,000 ms) | CA of Surfactant (contact angle) ([3]; substrate Nylon) [°] | CA of Surfactant (contact angle) [3, 4] [°] | CA of Surfactant (contact angle) ([3]; substrate Polyethylene-HD) | CA of Surfactant (contact angle) ([3]; substrate Teflon) | dynamic surface tension ([2]; surface age 1,000 ms) | surface tension ([1]; at a concentration of about 1.0 mmol or greater) [mN/m] | SMILES
1 | > 10 | ≤ 27 | about 27 mN/m | – | – | – | – | – | – | – | – | – | – | CCCCCCC(CCCC)COC(=O)CCCCC[N+](C)(C)C.[I-] (stereo not shown) [Example 1a, 6-((2-butyloctyl)oxy)-N,N,N-trimethyl-6-oxohexan-1-aminium iodide]
2 | – | ≤ 30 | about 27 mN/m | about 0.97 mmol | about 46 mN/m | about 30 mN/m | about 27 mN/m | 13.5 | 7.7 | 24.3 ° | 48.2 ° | – | – | CCCCCCC(CCCC)COC(=O)CCCCCN(C)C.Cc1ccc(S(=O)(=O)O)cc1 (stereo not shown) [Example 2a, 6-((2-butyloctyl)oxy)-N,N-dimethyl-6-oxohexan-1-aminium 4-methylbenzenesulfonate]
3 | – | – | about 29 mN/m | – | – | – | – | – | – | – | – | – | – | CCCCCCC(CCCC)COC(=O)CCCCCN(C)C.Cl (stereo not shown) [Example 3a, 6-((2-butyloctyl)oxy)-N,N-dimethyl-6-oxohexan-1-aminium chloride]
4 | – | ≤ 32 | about 32 mN/m | about 0.54 mmol | about 66 mN/m | about 36 mN/m | about 32 mN/m | 28.7 | 29.8 | 44.4 ° | 62.2 ° | – | – | CCCCCCC(CCCC)COC(=O)CCCCC[N+](C)(C)CCCCS(=O)(=O)[O-] (stereo not shown) [Example 4a, 4-((6-((2-butyloctyl)oxy)-6-oxohexyl)dimethylammonio)butane-1-sulfonate]
5 | – | ≤ 28 | about 28 mN/m | about 0.29 mmol | about 60 mN/m | – | about 28 mN/m | 38.5 | 9.2 | 31.6 ° and 31.9 ° | 41.5 ° and 41.0 ° | about 30 mN/m | – | CCCCCCC(CCCC)COC(=O)CCCCC[N+](C)(C)[O-] (stereo not shown) [Example 5a, 2-butyloctyl 6-(dimethylamino)hexanoate N-oxide]
6 | – | ≤ 30 | about 27 mN/m | about 0.15 mmol | about 69 mN/m | – | about 29 mN/m | 24.5 | 20.1 | 25.8 ° | 48.7 ° | about 49 mN/m | – | CCCCCCC(CCCC)COC(=O)CCCCCN.Cl (stereo not shown) [Example 6a, 6-((2-butyloctyl)oxy)-6-oxohexan-1-aminium chloride]
7 | – | ≤ 30 | about 27 mN/m | about 2.12 mmol | about 46 mN/m | about 30 mN/m | about 27 mN/m | 12.6 | 13.2 | 14.6 ° | 49.4 ° | – | ≤ 28.5 | CCCCCCC(CCCC)COC(=O)CCCCCN.Cc1ccc(S(=O)(=O)O)cc1 (stereo not shown) [Example 7a, 6-((2-butyloctyl)oxy)-6-oxohexan-1-aminium 4-methylbenzenesulfonate]
